Test results from patent publication US20040142322A1, “Continuous non-radioactive polymerase assay” (priority 2002, published 2004).

Legend:
Type in all cases: biochemical
HCV NS5B = target: T1, HCV NS5B (Hepatitis C virus genotype 1b, UniProt P26663); assay: Continuous non-radioactive (luciferase-coupled) NS5B polymerase assay, inhibitor test; conditions: NS5B 20 nM, GTP 1 μM, inhibitor 0.1-2.5 μM, FIG. 3
T1 construct: The HCV NS5BΔ55 enzyme was prepared as described by Ferrari et al; made in house
Method: Polymerase assays were performed at room temperature using a 100 μl reaction mix in a 96-well plate. Final reaction conditions for NS5B were modified from those used by Ferrari et al. J. Virol. 73:1649-54 (1999) [20 mM Hepes pH 7.3; 7.5 mM DTT; 20 U/ml RNAsin; 0.5 μg/ml oligo(G)12; 5 μg/ml poly(C); 1 μM GTP; 10 mM MgCl2; 60 mM NaCl; 100 μg/ml BSA; and NS5B]. NS5B assay mixtures were supplemented with components for the ATP sulfurylase and luciferase coupled enzyme reactions [0.5 mM coenzyme A (CoA); 310 μM D-luciferin; 1 nM luciferase; 5 μM APS; 0.03-0.3 U ATP sulfurylase (see Brief Description of the Drawings for specific conditions)]. […]
To test the effect of inhibitors on the NS5B polymerase reaction, compounds were diluted in the appropriate diluents and added to the GTP-containing mixture. Microtiter plates containing the reaction samples were immediately transferred to the luminometer for detection of the light signal generated over time, taking a 0.2-1.0 s reading of each well every 30-60 s (time intervals depend on the number of samples tested). Readings were monitored in comparison to a no-NS5B reaction as a control for ATP generation in the absence of polymerase activity. […]

firefly luciferase [1] = conditions: reactions without RdRp or template, nucleotide 1 μM final
Method: (§1) To test the effect of NTPs on the ATP sulfurylase/luciferase coupled read-out system, control reactions for NS5B assays (with 0.3 U ATP sulfurylase) were assembled as above omitting RdRp and RNA. Reactions were initiated by addition of nucleotide (1 μM final). To reduce free PPi in commercial NTPs, 10 mM stocks were pretreated with inorganic pyrophosphatase. A 10 μl aliquot of the NTP stock was incubated with 0.5 U of thermostable inorganic pyrophosphatase for 10 minutes at 75° C.; untreated NTP samples were processed in parallel as controls. Treated and untreated NTPs were diluted to 100 μM working stocks for subsequent assays.
(§2) Another possible source of background is direct utilization of the NTPs by the ATP sulfurylase/luciferase cascade. To address this possibility, reactions without either RdRp or template were examined.

firefly luciferase [2] = target: T2, firefly luciferase (Photinus pyralis, UniProt P08659)
T2 construct: purchased Promega (Madison, Wis.)
Method: as §1, §2

T1 sequence (P26663 2420-2955): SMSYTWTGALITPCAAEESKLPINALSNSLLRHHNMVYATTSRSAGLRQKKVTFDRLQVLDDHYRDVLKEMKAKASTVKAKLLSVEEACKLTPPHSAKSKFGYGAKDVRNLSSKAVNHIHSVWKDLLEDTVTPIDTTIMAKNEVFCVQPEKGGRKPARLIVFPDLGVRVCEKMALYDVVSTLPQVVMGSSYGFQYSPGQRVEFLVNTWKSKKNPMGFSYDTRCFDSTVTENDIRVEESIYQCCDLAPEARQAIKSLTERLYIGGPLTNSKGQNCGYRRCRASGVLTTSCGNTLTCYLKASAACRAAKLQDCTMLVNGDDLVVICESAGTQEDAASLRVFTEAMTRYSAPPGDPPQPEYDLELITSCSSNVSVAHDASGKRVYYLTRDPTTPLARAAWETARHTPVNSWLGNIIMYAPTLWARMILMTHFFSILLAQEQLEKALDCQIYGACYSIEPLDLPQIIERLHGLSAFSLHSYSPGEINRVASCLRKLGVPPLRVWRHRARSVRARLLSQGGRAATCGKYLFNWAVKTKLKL
T2 sequence (P08659 whole entry): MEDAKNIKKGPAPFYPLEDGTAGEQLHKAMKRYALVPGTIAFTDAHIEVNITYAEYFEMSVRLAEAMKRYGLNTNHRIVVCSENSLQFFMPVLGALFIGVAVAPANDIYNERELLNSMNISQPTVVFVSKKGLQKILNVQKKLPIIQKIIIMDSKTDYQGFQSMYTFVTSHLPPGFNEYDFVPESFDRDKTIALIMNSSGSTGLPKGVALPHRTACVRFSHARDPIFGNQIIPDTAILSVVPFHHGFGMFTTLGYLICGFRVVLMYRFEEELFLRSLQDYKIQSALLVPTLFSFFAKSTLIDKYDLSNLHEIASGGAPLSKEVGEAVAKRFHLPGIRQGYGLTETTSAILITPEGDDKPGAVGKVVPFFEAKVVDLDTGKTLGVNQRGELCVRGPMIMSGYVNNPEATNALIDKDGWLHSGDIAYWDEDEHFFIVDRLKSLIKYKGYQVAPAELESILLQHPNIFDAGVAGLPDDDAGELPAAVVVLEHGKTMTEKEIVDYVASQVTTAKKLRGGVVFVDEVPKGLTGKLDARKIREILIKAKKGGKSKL

Structure (SMILES): Nc1nc2c(ncn2[C@@H]2O[C@H](COP(=O)(O)OP(=O)(O)OP(=O)(O)O)C[C@H]2O)c(=O)[nH]1 [3′-deoxyguanosine-5′ triphosphate]
- Inhibition of NS5B activity (reduced levels of light generated) (HCV NS5B; 30 minute reaction): Dose- and time-dependent inhibition
- Mode of inhibition from progress curves (HCV NS5B): consistent with chain termination

Structure (SMILES): Nc1ncnc2c1ncn2[C@@H]1O[C@H](COP(O)(=S)OP(=O)(O)OP(=O)(O)O)[C@@H](O)[C@H]1O (stereo partly shown) [ATPαS]
- Utilization of NTP as substrate by the ATP sulfurylase/luciferase cascade (background signal) (firefly luciferase [1]): poor substrate for luciferase

Structure (SMILES): Nc1ncnc2c1ncn2[C@@H]1O[C@H](COP(=O)(O)OP(=O)(O)OP(=O)(O)O)[C@@H](O)[C@H]1O [ATP, Adenosine 5′-triphosphate]
- Km (firefly luciferase [2]; read-out: Km for the luciferase reaction, under these experimental conditions, data not shown): 0.65 ± 0.04 µM

Structure (SMILES): Nc1nc2c(ncn2[C@@H]2O[C@H](COP(=O)(O)OP(=O)(O)OP(=O)(O)O)[C@@H](O)[C@H]2O)c(=O)[nH]1 [GTP]
- Utilization of NTP as substrate by the ATP sulfurylase/luciferase cascade (background signal) (firefly luciferase [1]): lowest level of signal

Structure (SMILES): O=P(O)(O)OP(=O)(O)OP(=O)(O)OC[C@H]1O[C@@H](n2cnc3c(O)ncnc32)[C@H](O)[C@@H]1O [Inosine triphosphate (ITP), Inosine triphosphate]
- Luciferase substrate quality relative to GTP (firefly luciferase [2]; reactions without RdRp or template, nucleotide 1 μM final): about 10 fold
- Utilization of NTP as substrate by the ATP sulfurylase/luciferase cascade (background signal) (firefly luciferase [1]): relatively good luciferase substrate
